Columns and labels:
HO HCU mice [1] = test: Plasma metabolite levels (tHcy, methionine cycle amino acids, SAM, SAH) in HO HCU mice; format: in vivo, mouse; details: for plasma Hcy / plasma cysteine levels: HO mice, about 3.0% (w/v) in drinking water ad libitum, normal methionine diet
Protocol: It is noted that WT mice (n=6) include untreated controls. HO HCU mice (N=8, 4 of each sex in each group) were either untreated or treated with about 3.0% (w/v) glycine w/v or about 3.0% (w/v) serine given in drinking water supplied ad libitum for one week. Plasma samples were taken and Hcy and cysteine levels were determined. *** denotes a P value <0.0001.
In accordance with these methods, HO HCU mice (N=8, 4 of each sex in each group) were treated with either about 3.0% glycine w/v or about 3.0% w/v serine given in drinking water supplied ad libitum for one week in the presence and absence of about 3.0% w/v betaine. Plasma samples were taken from the mice at various times and Hcy levels were determined.
Plasma Hcy levels were determined from HO HCU mice (n=8 per group) in the presence and absence of either about 5.0% w/v sodium formate alone or in combination with about 3.0% betaine given in drinking water given ad libitum.
In one exemplary method, mice were given zinc in drinking water. For this example, 8 HO HCU mice were provided drinking water supplemented with zinc (e.g. 0.05% w/v Zinc sulfate) given ad libitum for one week.
(§1) In another exemplary method, the transsulfuration pathway and methionine-folate cycle pathways, as show in the sematic illustrated in FIG. 18A, were assessed. In brief, three experimental groups (n=8 for each group) of male mice consisting of either untreated WT controls or HO HCU mice in the presence or absence of betaine treatment. Betaine was administered by dissolving the compound in drinking water at 30 g/l and was supplied ad libitum to the mice for one week. Treatment water was replenished twice per week.
A comparative reference data set was generated for these mice by examining plasma levels of tHcy, methionine, cysteine, serine, glycine, dimethylglycine, methylglycine (MG, SAM and SAH). In brief, determination of plasma levels of amino acids relevant to the methionine cycle were determined using methods similar to those described in Stabler et al., Blood. 81 (1993) 3404-3413, incorporated in its entirety herein. Determination of hepatic 5-methylTHF was performed by liquid chromatography-tandem mass spectrometry using methods similar to those described in Witham et al., PLoS One. 8 (2013) e77923, incorporated in its entirety herein. The global metabolomic analysis of methionine and folate cycle related metabolites was carried out by Metabolon, Inc. Briefly, sample preparation was performed utilizing the automated MicroLab STAR® system. Sample preparation was performed using a proprietary series of organic and aqueous extractions to remove the protein fraction while allowing maximum recovery of small molecules. The resulting extract was divided into two fractions: one for analysis by liquid chromatography and one for analysis by gas chromatography. Each sample was then frozen and dried under vacuum. The LC/mass spectrometer portion of the platform was based on a Waters ACQUITY UPLC and a Thermo-Finnigan LTQ mass spectrometer, which consisted of an electrospray ionization source and linear ion-trap mass analyzer. Samples were analyzed on a Thermo-Finnigan Trace DSQ fast-scanning single-quadrupole mass spectrometer using electron impact ionization. Identification of known chemical entities was based on comparison to library entries of authenticated standards. Tissue polyamines putrescine, spermidine and spermine and 5-methylthioadenosine (MTA) were determined by liquid chromatography-tandem mass spectrometry using methods similar to those described in Stevens et al., J Chromatogr A 1217 (2010) 3282-3288, incorporated in its entirety herein.

Cbs null mouse = Cbs null mouse model (Hcy, survival, liver injury); format: in vivo; details: severe liver damage abolished BHMT-mediated betaine response
From the text: In another exemplary method, an acceptable mouse mode of HCU was used to study various effects of exemplary compositions disclosed herein on aberrant Hcy levels. To date, the majority of research on HCU had been performed using a CBS knockout mouse model. These Cbs (−/−) animals experienced pronounced liver injury and typically die within 2-3 weeks of birth.
In another exemplary method, agents were used to verify involvement of BHMT in the homocystinuria treatment process. In these exemplary methods, a Cbs null mouse was used where severe liver damage to the mouse model interferes with standard HCU treatments to reduce Hcy.

DMGDH = test: Western blotting of hepatic DMGDH protein levels; format: in vivo, mouse; details: HO HCU mice, about 5.0% sodium formate alone or with about 3.0% betaine in drinking water, about one week
From the text: As shown in FIGS. 12A-12B, a Western blot comparing the level of DMGDH and GAPDH (control) for untreated (HO), treated (e.g. formate agent) and treated with standard treatment combinations (e.g. formate and trimethylglycine (e.g. betaine)) using the HCU mouse model (FIG. 12A); and further illustrating in a histogram plot (FIG. 12B), level of intensity of DMDGH for untreated (HO), treated (e.g. formate agent) and treated with standard treatment combinations (e.g. formate and trimethylglycine (e.g. betaine)) using the HCU mouse model in certain embodiments disclosed herein. Western blotting analysis of hepatic DMGDH protein levels in HO HCU mice in the presence and absence of either about 5.0% sodium formate alone or in combination with about 3.0% betaine given ad libitum in drinking water for about one week. N=9 per group. This figure is representative of three independent experiments.

HO HCU mice [2] = test: Tail bleeding time / hypercoagulative phenotype in HO HCU mice; format: in vivo, mouse; details: 4 mM solution in drinking water ad libitum, one week
Protocol: In another exemplary method, effect of polyamines (e.g. spermidine and spermine) on the hypercoagulative phenotype induced by HCU was assessed which is a measure of treatment for genetic HCU where rapid coagulation is a side effect of these conditions. In brief, mice containing both the human CBS transgene and no functional copy of the mouse equivalent gene were identified by PCR from the litters of progeny of 11181×MKO^+/− F1 mice backcrossed to MKO^+/− mice. These mice were designated as “human only” (HO) mice and used as a human model of HCU. […] In order to further investigate the possible therapeutic potential of polyamine (e.g. spermidine and spermine) therapy in HCU, WT and HO HCU mice were given either: […]; […] in drinking water given ad libitum; or drinking water (untreated, control). After one week, tail bleeding times were determined for untreated wild type (WT) control B6 mice and HO HCU mice from all treatment groups.

SAHH = test: Western blotting of hepatic SAHH expression; format: in vivo, mouse; details: HO mice, 30 g/l in drinking water ad libitum, one week
Protocol: (§2) To investigate the effects of these treatments upon the hepatic regulatory changes in enzyme expression induced by HCU, the human transgenic HO mouse model of HCU was used. In brief, experimental groups consisting of 8 HO mice on a C57BL/6J background and 8 C57BL/6J WT littermate control mice bred in house were used. Mice in both groups were male and aged between 3 and 4 months. Except where otherwise stated, all mice were maintained on standard chow. All diets were administered using a paired-feeding design to ensure isocaloric intake between all experimental groups and body weights were measured once per week. There was no significant difference in body weight between mice in any of the experimental groups. Betaine and taurine were in this example, both administered by dissolving these compounds in drinking water at 30 g/l (2% or 3% w/v) and were supplied ad libitum for one week. Treatment water was replenished twice per week.
(§3) Western blotting analysis of SAHH, MTHFR and SHMT2 expression was performed in liver samples from HO mice in the presence and absence of betaine or taurine treatment.

MTHFR = test: Western blotting of hepatic MTHFR expression; format: in vivo, mouse; details: HO mice, 30 g/l in drinking water ad libitum, one week
Protocol: as §2, §3

SHMT2 = test: Western blotting of hepatic SHMT2 expression; format: in vivo, mouse; details: HO mice, 30 g/l in drinking water ad libitum, one week
Protocol: as §2, §3

SHMT1 = test: Western blotting of hepatic SHMT1 expression; format: in vivo, mouse; details: HO mice, 30 g/l in drinking water ad libitum, one week
Protocol: as §2
(§4) These observations are the first to report betaine and taurine acting to regulate expression of these processes. Therefore, this observation supports that taurine alone or in combination with betaine and other treatments for genetic homocystinuria are viable options for avoiding dietary restraints and treating these conditions.

MAT1A = test: Western blotting of hepatic MAT1A expression; format: in vivo, mouse; details: HO HCU mice, 30 g/l in drinking water ad libitum, one week
Protocol: as §2, §4

GNMT = test: Western blotting of hepatic GNMT expression; format: in vivo, mouse; details: HO HCU mice, 30 g/l in drinking water ad libitum, one week
Protocol: as §2, §4

[3] = mouse, in vivo
Protocol: as §1
as §2, with “Betaine and taurine were in this example, both administered by dissolving these compounds in drinking water at 30 g/l (2% or 3% w/v) and were supplied ad libitum for one week. Treatment water was replenished twice per week.” left out

[4] = test system: cysteine oxidation pathways; test: Cysteine oxidation pathways in HCU (HO model); format: in vivo, mouse; details: 30 g/l in drinking water, one week
Protocol: as §2

HO HCU mice [5] = details: taurine supplementation; cited from earlier work
HO HCU mice [6] = test: Plasma metabolite levels (tHcy, methionine cycle amino acids, SAM, SAH) in HO HCU mice; format: in vivo, mouse; details: taurine treatment
glutathione = details: taurine supplementation; cited from earlier work
human HCU patients = details: taurine supplementation; cited from earlier work

In the case of `O=S(=O)([O-])[O-].[Zn+2]` [Zinc sulfate], the “decrease in plasma homocysteine” value (HO HCU mice [1]; 8 HO HCU mice, 0.05% w/v Zinc sulfate in drinking water ad libitum, one week, p<0.001) is reported as 25%.
For `NCC(=O)O` [glycine], the “plasma Hcy” value (HO HCU mice [1]; one week) was “significantly lowered”, the plasma cysteine levels (HO HCU mice [1]; one week) was “increased” and the “Hcy in Cbs null mouse model” value (Cbs null mouse) was “unable to lower Hcy”.
In the case of `N[C@@H](CO)C(=O)O` [serine], the “plasma Hcy” value (HO HCU mice [1]; one week) is reported as “significantly lowered”, the plasma cysteine levels (HO HCU mice [1]; one week) is reported as “increased” and the “Hcy in Cbs null mouse model” value (Cbs null mouse) is reported as “unable to lower Hcy”.
For `O=C[O-].[Na+]` [sodium formate], the “plasma Hcy levels” value (HO HCU mice [1]; HO HCU mice, about 5.0% w/v sodium formate alone or with about 3.0% betaine in drinking water ad libitum, normal methionine/protein diet) was “significantly lowered”, the “hepatic DMGDH expression levels” value (DMGDH) was “restore normal expression levels” and the “Hcy in Cbs null mouse model” value (Cbs null mouse) was “unable to lower Hcy”.
With `NCCCCNCCCN` [spermidine] the “clotting time (tail bleeding time) compared to untreated HO mice” value (HO HCU mice [2]) was “highly significant increase in clotting time”.
In the case of `NCCCNCCCCNCCCN` [spermine], the “clotting time (tail bleeding time) compared to untreated HO mice” value (HO HCU mice [2]) is reported as “significantly ameliorated”.
With `NCCS(=O)(=O)O` [taurine] the “HCU-mediated induction of hepatic SAHH expression” value (SAHH) was “essentially identical reversal”, the “HCU-mediated induction of hepatic MTHFR expression” value (MTHFR) was “essentially identical reversal” and the “HCU-induced repression of hepatic SHMT2” value (SHMT2) was “essentially identical reversal”. For the same compound, the “increase in hepatic SHMT1 expression” value (SHMT1) was 35%, the “hepatic MAT1a expression” value (MAT1A) was “induced expression” and the “hepatic GNMT expression” value (GNMT) was “induced expression”. The tolerability of doses [3] was “well tolerated”, the “dysregulation of cysteine oxidation pathways in HCU” value [4] was “ameliorate the dysregulation of cysteine oxidation pathways” and the “efficacy of betaine treatment in mice” value (HO HCU mice [5]) was “enhances the efficacy of betaine treatment”. For the same compound, the “effect upon lowering plasma tHcy levels” value (HO HCU mice [6]) was “only a mild effect”, the “HCU-induced disturbances in glutathione metabolism and the gamma-glutamyl cycle” value (glutathione) was “effectively normalized” and the “endothelial dysfunction in human HCU patients” value (human HCU patients) was “completely ablate endothelial dysfunction”.

— US12702654B2, “Compositions and methods for treating homocystinuria and other conditions using polyamines” (THE REGENTS OF THE UNIVERSITY OF COLORADO, priority 2020, dated 2026)
